This is an account of results in ChEMBL document CHEMBL5108000, “Design and synthesis of novel indole and indazole-piperazine pyrimidine derivatives with anti-inflammatory and neuroprotective activities for ischemic stroke treatment” (Eur J Med Chem, 2022).

The source made the active and inactive calls. No cut-off for these calls is given here.

Experiment [1] has as its system Mus musculus. Put plainly: Antiinflammatory activity in LPS-induced neuroinflammatory model of SPF male mouse assessed as TNF-alpha level at 4 mg/kg, iv administered once 6 hrs after LPS administration and measured by ELISA. The format is functional. Background: An ELISA detects its analyte on a solid surface through an enzyme-linked reagent.
Experiment [2] has as its system Rattus norvegicus. In words: Neuroprotective activity in SPF Sprague-Dawley rat model of middle cerebral artery occlusion-induced ischemia-reperfusion injury assessed as decrease in neurological deficit score at 20 mg/kg, iv administered once a day. The format is functional, organism-based.
Experiment [3] has as its system Mus musculus. In words: Antiinflammatory activity in LPS-induced neuroinflammatory model of SPF male mouse assessed as IL1-beta level at 20 mg/kg, iv administered once 6 hrs after LPS administration and measured by ELISA. The format is functional.
Experiment [4] relates to BV-2. Put plainly: Antiinflammatory activity in LPS-stimulated mouse BV-2 cells assessed as inhibition of TNF-alpha release at 10 uM and measured after 8 hrs by ELISA. The format is functional, cell-based.
The subject of experiment [5] is BV-2. In words: Antiinflammatory activity in LPS-stimulated mouse BV-2 cells assessed as inhibition of IL-6 release at 10 uM and measured after 8 hrs by ELISA. The format is functional.
Experiment [6] deals with Rattus norvegicus. In words: Neuroprotective activity in SPF Sprague-Dawley rat model of middle cerebral artery occlusion-induced ischemia-reperfusion injury assessed as decrease in cerebral infarction area at 20 mg/kg, iv administered once a day by TTC staining based assay. The format is functional. Set-up: scale not given: the % may be the effect or the level left.
The target in experiment [7] is Prostaglandin G/H synthase 1 (Homo sapiens, UniProt P23219). Put plainly: Inhibition of COX-1 (unknown origin) using arachidonic acid as substrate and measured by fluorometric assay.
Sequence of Prostaglandin G/H synthase 1 (P23219 whole entry): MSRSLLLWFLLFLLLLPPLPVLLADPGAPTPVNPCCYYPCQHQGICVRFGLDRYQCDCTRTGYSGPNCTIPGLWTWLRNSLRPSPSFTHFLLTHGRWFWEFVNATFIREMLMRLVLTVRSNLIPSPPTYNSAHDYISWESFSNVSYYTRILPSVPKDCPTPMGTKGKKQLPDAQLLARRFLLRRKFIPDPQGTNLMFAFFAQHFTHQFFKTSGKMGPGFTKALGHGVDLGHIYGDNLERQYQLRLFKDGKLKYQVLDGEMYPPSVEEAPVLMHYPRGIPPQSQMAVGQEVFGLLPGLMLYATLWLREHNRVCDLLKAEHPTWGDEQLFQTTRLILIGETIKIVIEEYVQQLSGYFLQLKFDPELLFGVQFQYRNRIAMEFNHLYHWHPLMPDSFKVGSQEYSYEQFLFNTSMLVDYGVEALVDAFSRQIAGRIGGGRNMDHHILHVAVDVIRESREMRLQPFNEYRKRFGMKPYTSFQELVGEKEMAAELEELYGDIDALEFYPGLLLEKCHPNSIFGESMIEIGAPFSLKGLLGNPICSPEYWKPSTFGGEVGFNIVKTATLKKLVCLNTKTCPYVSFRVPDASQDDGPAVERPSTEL
The subject of experiment [8] is BV-2. In words: Antiinflammatory activity in LPS-stimulated mouse BV-2 cells assessed as inhibition of IL-1beta release at 10 uM and measured after 8 hrs by ELISA. The format is functional, cell-based.
The subject of experiment [9] is BV-2. In words: Neuroprotective activity against in OGD/R-induced mouse BV-2 cell injury assessed as cell viability at 0.1 uM measured after 24 hrs by MTT assay. The settings on record: read-out: Activity. The format is functional. On the technique in general: Formazan colour is commonly taken as a measure of viable cells.
The test system of experiment [10] is Mus musculus. In words: Antiinflammatory activity in LPS-induced neuroinflammatory model of SPF male mouse assessed as IL1-beta level at 4 mg/kg, iv administered once 6 hrs after LPS administration and measured by ELISA. The format is functional.
Experiment [11] can be described thus: Inhibition of soybean 5-LOX. Set-up: species or system Glycine max.
Experiment [12] deals with BV-2. In words: Antiinflammatory activity in LPS-stimulated mouse BV-2 cells assessed as inhibition of NO production at 10 uM and measured after 24 hrs by Griess method. The format is functional, cell-based. On the technique in general: Griess reagent forms a coloured azo dye with nitrite.
Experiment [13] has as its system Mus musculus. Put plainly: Antiinflammatory activity in LPS-induced neuroinflammatory model of SPF male mouse assessed as TNF-alpha level at 20 mg/kg, iv administered once 6 hrs after LPS administration and measured by ELISA. The format is functional.
Experiment [14] has as its system BV-2. In words: Neuroprotective activity against in OGD/R-induced mouse BV-2 cell injury assessed as cell viability at 1 uM measured after 24 hrs by MTT assay. The format is functional. The settings on record: read-out: Activity.
In experiment [15] the test system is Rattus norvegicus. Put plainly: Neuroprotective activity in SPF Sprague-Dawley rat model of middle cerebral artery occlusion-induced ischemia-reperfusion injury assessed as inhibition of cerebral infarction at 20 mg/kg, iv administered once a day by TTC staining based assay. The format is functional.
Experiment [16] concerns BV-2. Put plainly: Antiinflammatory activity in LPS-stimulated mouse BV-2 cells assessed as inhibition of PGE2 release at 10 uM and measured after 8 hrs by ELISA. The format is functional.
The subject of experiment [17] is BV-2. Put plainly: Antiinflammatory activity in OGD/R-induced mouse BV-2 cells assessed as promotion of M2-phenotype polarization at 0.1 to 10 uM measured as upregulation of CD206+/IBA-1+ expression after 24 hrs by flow cytometry assay. The format is functional, cell-based. The settings on record: dose 0.1-10 µM.
For experiment [18], the system named is BV-2. In words: Neuroprotective activity against in OGD/R-induced mouse BV-2 cell injury assessed as cell viability at 10 uM measured after 24 hrs by MTT assay. As to conditions: read-out: Activity. The format is functional.
In experiment [19] the test system is BV-2. In words: Antiinflammatory activity in OGD/R-induced mouse BV-2 cells assessed as inhibition of M1-phenotype polarization at 0.1 to 10 uM measured as downregulation of CD16/32+/IBA-1+ expression after 24 hrs by flow cytometry assay. The format is functional, cell-based. The settings on record: dose 0.1-10 µM.

On to `O=C(c1cc2ccccc2n1Cc1ccc(F)cc1)N1CCN(c2ncccn2)CC1`, for which the Activity in the experiment on Mus musculus [1] was determined as 118.69 pg/g; in the experiment with Mus musculus [3], 48.23 pg/g; in the experiment on Rattus norvegicus [6], 14.27%; in the experiment on Mus musculus [10], 69.83 pg/g; in the experiment with Mus musculus [13], 87.48 pg/g. The result with Rattus norvegicus [2], with BV-2 [17] and with BV-2 [19] was Active. The inhibition (as a rule, the percentage by which the read-out fell short of the control) at 10 µM turned out to be 47.9% with BV-2 [4]; 45.7% with BV-2 [5]; 44.3% in the experiment on BV-2 [8]; 9.38% with BV-2 [12]; 47.2% in the experiment on BV-2 [16]. Also, the IC50 (as a rule, the concentration that gives 50% inhibition) in experiment [7] worked out at 1630 nM; in [11], 41.9 nM. The viability at 0.1 µM in the experiment on BV-2 [9] stood at 72.2%. For the same compound, in the experiment with BV-2 [14], the viability at 1 µM turned out to be 83.8%. Besides, the inhibition in vivo (commonly the relative decrease from the control value, in per cent) at 20 mg/kg in the experiment with Rattus norvegicus [15] was 38.3%. For the same compound, the viability at 10 µM in the experiment on BV-2 [18] came out at 89.7%.
